Results on three molecules are retold here after patent US4103082A, “Aminocyclitol derivatives and process for producing the same” (priority 1975, dated 1978).

SMILES strings stand for the structures. ≈ marks a conversion by molar mass, not a printed value.

The test system of assay [1] is antibiotic-resistant microorganisms. Particulars: J. Antibiotics, 24 (10) 711, (1971); cited from earlier work.
In assay [2] the test system is Bacillus subtilis ATCC 6633. The assay can be described thus: paper disk method, inhibitory zone diameter. To be noted: ATCC6633, read-out: inhibitory zone diameter. Format: cell-based.
The next assay has as its system Klebsiella 6. The assay can be described thus: paper disk method, inhibitory zone diameter. The assay is classed as cell-based. Particulars: Klebsiella, 6, read-out: inhibitory zone diameter.
For assay [3], the system named is Staphylococcus aureus 6538P. The assay can be described thus: paper disk method, inhibitory zone diameter. The assay is classed as cell-based. To be noted: read-out: inhibitory zone diameter.
For another assay, the system named is Mycobacterium 607. The assay can be described thus: paper disk method, inhibitory zone diameter. The assay is classed as cell-based. Particulars: Mycobacterium, 607, read-out: inhibitory zone diameter.
The test system of another assay is E. coli K-12. The assay can be described thus: paper disk method, inhibitory zone diameter. The assay is classed as cell-based. Particulars: Escherichia coli, K12, read-out: inhibitory zone diameter.
A further assay concerns Pseudomonas 1007. The assay can be described thus: paper disk method, inhibitory zone diameter. Format: cell-based. Particulars: Pseudomonas, 1007, read-out: inhibitory zone diameter.
The test system of another assay is Klebsiella 7. The assay can be described thus: paper disk method, inhibitory zone diameter. Particulars: Klebsiella, 7, read-out: inhibitory zone diameter. Format: cell-based.
Assay [4] has as its system E. coli HL-1629 (Kanamycin-resistant strain). The assay can be described thus: microbe, parasite or virus in culture. To be noted: Escherichia coli, read-out: inhibitory zone diameter. The assay is classed as cell-based.
In assay [5] the test system is Staphylococcus aureus Smith S-424. The assay can be described thus: antibacterial activity (Minimum Inhibitory Concentration). The assay is classed as cell-based. Particulars: Staphylococcus aureus, SMITHS424.
Assay [6] deals with Vibrio parahaemolyticus K-7. Described as above. To be noted: Vibrio parahaemolyticus, K7. Format: cell-based.
For assay [7], the system named is Bacillus subtilis ATCC 6633. Described as above. The assay is classed as cell-based. Particulars: Bacillus subtilis, ATCC6633.
For another assay, the system named is E. coli C73-1. Described as above. The assay is classed as cell-based. To be noted: Escherichia coli, C731.
Assay [8] relates to Vibrio parahaemolyticus K-5. The description is as above. Format: cell-based. Particulars: Vibrio parahaemolyticus, K5.
For assay [9], the system named is Staphylococcus aureus C73-21. The assay is described as above. The assay is classed as cell-based. Particulars: Staphylococcus aureus, C7321.
Assay [10] concerns Vibrio parahaemolyticus K-3. Described as above. The assay is classed as cell-based. To be noted: Vibrio parahaemolyticus, K3.
Another assay deals with E. coli C73-4. Described as above. Format: cell-based. Particulars: Escherichia coli, C734.
The next assay relates to Proteus morganii Kono. Described as above. Format: cell-based. To be noted: Morganella morganii.
The next assay has as its system Proteus species C73-34. The description is as above. Format: cell-based.
In assay [11] the test system is Staphylococcus aureus C73-10. The description is as above. The assay is classed as cell-based. To be noted: Staphylococcus aureus, C7310.
In another assay the test system is Proteus species C73-23. The description is as above. The assay is classed as cell-based.
In a further assay the test system is Proteus species C73-33. The assay is described as above. Format: cell-based.
The next assay relates to Proteus species C73-25. Described as above. The assay is classed as cell-based.
Assay [12] deals with Bacillus anthracis No. 119. The assay can be described thus: microbe, parasite or virus in culture. The assay is classed as cell-based.
Assay [13] relates to Enterococcus species C73-17. The assay can be described thus: antibacterial activity (Minimum Inhibitory Concentration). Format: cell-based. To be noted: Enterococcus, C7317.
The test system of another assay is E. coli C73-12. Described as above. Format: cell-based. Particulars: Escherichia coli, C7312.
Assay [14] deals with Staphylococcus aureus C73-4. The description is as above. Format: cell-based. Particulars: Staphylococcus aureus, C734.
Assay [15] deals with Shigella dysenteriae Shigae. The assay can be described thus: microbe, parasite or virus in culture. Format: cell-based.
Assay [16] relates to Staphylococcus aureus 209P JC-1. The assay can be described thus: antibacterial activity (Minimum Inhibitory Concentration). Format: cell-based. To be noted: Staphylococcus aureus, 209P.
The test system of assay [17] is Enterococcus species C73-33. Described as above. The assay is classed as cell-based. Particulars: Enterococcus, C7333.
The test system of assay [18] is Staphylococcus albus PCI-1200A. The description is as above. Format: cell-based. Particulars: Staphylococcus, PCI1200A.
The subject of another assay is Klebsiella pneumoniae. The assay is described as above. The assay is classed as cell-based.
The test system of assay [19] is Staphylococcus aureus No. 26. Described as above. Format: cell-based. Particulars: Staphylococcus aureus, NO.26.
Assay [20] has as its system Salmonella species C73-30. Described as above. The assay is classed as cell-based. Particulars: C7330.

`NC[C@@H]1CC[C@@H](N)[C@@H](O[C@H]2[C@H](O)[C@@H](O)[C@H](N)C[C@@H]2N)O1` [3',4'-deoxyneamine]: the “antimicrobial activities against antibiotic-resistant microorganisms” value in [1] is “exhibits antimicrobial activities against various antibiotic-resistant microorganisms”.
In the case of `NC[C@H]1O[C@H](O[C@H]2[C@H](O)[C@@H](O)[C@H](N)C[C@@H]2N)[C@H](N)[C@@H](O)[C@@H]1O` [Neamine, neamine, reference compound], in [2], the zone of inhibition at 7.8 µg/mL is 11.5 mm, the zone of inhibition at 15.6 µg/mL amounted to 14 mm, the zone of inhibition at 31.2 µg/mL worked out at 17 mm and the zone of inhibition at 62.5 µg/mL is 19.9 mm. Moreover, in [2], the zone of inhibition at 125 µg/mL was 23 mm, the zone of inhibition at 250 µg/mL worked out at 25 mm, the zone of inhibition at 500 µg/mL stood at 28.7 mm and the zone of inhibition at 1000 µg/mL was 31 mm. Further, in assay [2], the zone of inhibition at 2000 µg/mL stood at 33.5 mm. For the same molecule, the zone of inhibition at 2000 µg/mL in the assay on Klebsiella 6 is 0 mm. For the same molecule, in assay [3], the zone of inhibition at 7.8 µg/mL worked out at 0 mm, the zone of inhibition at 15.6 µg/mL is 0 mm, the zone of inhibition at 31.2 µg/mL is 0 mm and the zone of inhibition at 62.5 µg/mL was determined as 10 mm. Further, in assay [3], the zone of inhibition at 125 µg/mL came out at 13 mm, the zone of inhibition at 250 µg/mL is 15.3 mm, the zone of inhibition at 500 µg/mL worked out at 18.3 mm and the zone of inhibition at 1000 µg/mL came out at 20.7 mm. Further, the zone of inhibition at 2000 µg/mL in [3] came to 22.8 mm. In the assay with Mycobacterium 607, the zone of inhibition at 62.5 µg/mL worked out at 0 mm, the zone of inhibition at 125 µg/mL was 0 mm, the zone of inhibition at 250 µg/mL was found to be 14.8 mm and the zone of inhibition at 500 µg/mL stood at 20.4 mm. Moreover, in the assay on Mycobacterium 607, the zone of inhibition at 1000 µg/mL is 26.4 mm and the zone of inhibition at 2000 µg/mL was 32.5 mm. In addition, in the assay with E. coli K-12, the zone of inhibition at 7.8 µg/mL is 0 mm, the zone of inhibition at 15.6 µg/mL was determined as 0 mm, the zone of inhibition at 31.2 µg/mL is 11.4 mm and the zone of inhibition at 62.5 µg/mL turned out to be 14.3 mm. Also, in the assay on E. coli K-12, the zone of inhibition at 125 µg/mL was determined as 17.2 mm, the zone of inhibition at 250 µg/mL amounted to 20.4 mm, the zone of inhibition at 500 µg/mL turned out to be 22.6 mm and the zone of inhibition at 1000 µg/mL came out at 25.2 mm. In the assay on E. coli K-12, the zone of inhibition at 2000 µg/mL was found to be 27.4 mm. Besides, the zone of inhibition at 2000 µg/mL in the assay on Pseudomonas 1007 was 0 mm. Further, in the assay on Klebsiella 7, the zone of inhibition at 2000 µg/mL was determined as 0 mm. Besides, in [4], the zone of inhibition at 1000 µg/mL came to 0 mm and the zone of inhibition at 2000 µg/mL came to 12.3 mm.
In the case of `NC[C@H]1O[C@H](O[C@H]2[C@H](O)[C@@H](O)[C@H](N)C[C@@H]2N)[C@H](N)[C@@H](O)[C@@H]1O` [Neomycin A, reference compound], the MIC is 1.56 µg/mL (≈ 4.84 µM) in [5]; 50 µg/mL (≈ 155 µM) in assay [6]; 1.56 µg/mL (≈ 4.84 µM) in assay [7]; 25 µg/mL (≈ 77.6 µM) against E. coli C73-1; 50 µg/mL (≈ 155 µM) in [8]; 0.78 µg/mL (≈ 2.42 µM) in assay [9]. The MIC turned out to be 1.56 µg/mL (≈ 4.84 µM) in [10]; 25 µg/mL (≈ 77.6 µM) against E. coli C73-4; 12.5 µg/mL (≈ 38.8 µM) against Proteus morganii Kono; 25 µg/mL (≈ 77.6 µM) against Proteus species C73-34; 3.13 µg/mL (≈ 9.71 µM) in [11]; 25 µg/mL (≈ 77.6 µM) with Proteus species C73-23. In addition, the MIC with Proteus species C73-33 is 100 µg/mL (≈ 310 µM); with Proteus species C73-25, 6.25 µg/mL (≈ 19.4 µM); in assay [12], 12.5 µg/mL (≈ 38.8 µM); in [13], 100 µg/mL (≈ 310 µM); in the assay on E. coli C73-12 it was 12.5 µg/mL (≈ 38.8 µM); in assay [14], 3.13 µg/mL (≈ 9.71 µM). Also, the MIC in assay [15] came to 12.5 µg/mL (≈ 38.8 µM); in [16] it was 0.78 µg/mL (≈ 2.42 µM); in assay [17], 12.5 µg/mL (≈ 38.8 µM); in assay [18], 0.78 µg/mL (≈ 2.42 µM); with Klebsiella pneumoniae it was 12.5 µg/mL (≈ 38.8 µM); in assay [19], 3.13 µg/mL (≈ 9.71 µM). In assay [20], this molecule returned an MIC of 25 µg/mL (≈ 77.6 µM).
